Assay results published in patent US20170291890A1 (Epizyme, Inc., priority 2014, published 2017).

Target: T1, KDM5A (Homo sapiens, UniProt P29375)
T1 construct: C-terminal FLAG-tagged KDM5A^1-1090 was purchased from BPS Biosciences; FLAG (C); purchased BPS Biosciences
T1 sequence (P29375 1-1090): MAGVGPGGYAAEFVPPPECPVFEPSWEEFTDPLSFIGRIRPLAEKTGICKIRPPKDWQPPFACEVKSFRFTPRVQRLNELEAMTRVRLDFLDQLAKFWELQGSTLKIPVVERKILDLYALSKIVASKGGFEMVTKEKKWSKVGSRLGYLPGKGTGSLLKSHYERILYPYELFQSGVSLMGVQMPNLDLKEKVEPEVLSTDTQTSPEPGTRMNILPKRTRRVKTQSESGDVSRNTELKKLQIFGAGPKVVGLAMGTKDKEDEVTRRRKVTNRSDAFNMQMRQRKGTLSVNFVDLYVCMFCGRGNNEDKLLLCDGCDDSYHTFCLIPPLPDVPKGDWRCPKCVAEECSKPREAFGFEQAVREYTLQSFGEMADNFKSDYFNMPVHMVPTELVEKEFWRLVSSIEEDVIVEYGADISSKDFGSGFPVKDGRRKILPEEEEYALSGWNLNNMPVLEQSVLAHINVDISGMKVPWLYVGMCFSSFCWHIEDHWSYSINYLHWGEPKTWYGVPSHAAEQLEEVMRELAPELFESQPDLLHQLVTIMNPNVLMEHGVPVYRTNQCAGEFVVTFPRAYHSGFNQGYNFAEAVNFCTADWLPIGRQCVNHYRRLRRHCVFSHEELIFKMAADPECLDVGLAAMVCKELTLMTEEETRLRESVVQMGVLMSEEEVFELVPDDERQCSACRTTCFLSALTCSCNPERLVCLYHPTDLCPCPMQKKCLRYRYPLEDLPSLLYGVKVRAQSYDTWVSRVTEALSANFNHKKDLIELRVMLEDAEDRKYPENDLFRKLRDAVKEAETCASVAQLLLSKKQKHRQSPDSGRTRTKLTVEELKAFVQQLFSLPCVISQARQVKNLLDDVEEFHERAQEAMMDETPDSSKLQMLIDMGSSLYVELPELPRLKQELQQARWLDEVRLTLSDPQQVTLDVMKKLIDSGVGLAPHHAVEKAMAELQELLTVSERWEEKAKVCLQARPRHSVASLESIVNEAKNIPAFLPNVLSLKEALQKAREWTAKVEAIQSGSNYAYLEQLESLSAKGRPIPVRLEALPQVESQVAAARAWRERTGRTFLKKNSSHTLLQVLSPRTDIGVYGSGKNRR
Experiment: KDM5A Assay (SAMDI mass spectrometry demethylase assay)
Format: biochemical
Conditions: C-terminal FLAG-tagged KDM5A 1-1090; class symbols; read-out: 5A IC50
Procedure: C-terminal FLAG-tagged KDM5A^1-1090 was purchased from BPS Biosciences. Peptides were synthesized by BioPeptide and all other reagents were purchased from Sigma-Aldrich at the highest level of purity possible. Assays were performed in a 50 μL volume in 384-well V-bottom polypropylene microplates (Greiner) at 25° C. Optimized 1× assay buffer was 50 mM HEPES (pH=8.0), 100 μM sodium ascorbate, 20 mM NaCl, 10 μM ammonium iron sulfate, 1 mM tris(2-carboxyethyl)phosphine (TCEP), 0.002% Tween-20, and 0.005% BSG. For compound screening, 35 μL of […] (final concentration, f.c.=20 nM) was added using a Multidrop Combi and preincubated with 1 μL of test compound (f.c.=10 μM) for 30 minutes and subsequently 15 μL of peptide with the following sequence NH2-ART[Kme-3]QTARKSTGGKA[K-Ahx-Biot]-amide (f.c.=250 nM) and 2-oxoglutarate (f.c.=15 μM) was added by Multidrop Combi to begin the reaction. Reactions proceeded for 150 minutes and were stopped by the addition of 5 μL of formic acid (f.c.=0.5%) using a Multidrop Combi and then analyzed by SAMDI Tech Inc.
SAMDI Tech analyzed all reactions using self-assembled monoloayer desorption/ionization technology as previously described (Gerard-Levin Z A, Scholle M D, Eisenberg A H, et al.: High-throughput screening of small molecule libraries using SAMDI mass spectrometry. ACS Comb Sci 2011; 13:347-350). Briefly, a 2 μL sample of the stopped demethylase reactions were transferred to a SAMDI array coated with 384 biotin-neutravidin spots using a 384-channel pipet station. The SAMDI arrays were incubated for 1 h in a humidified chamber, followed by washing of the surface with deionized ultra-filtered water (DIUF) and drying under nitrogen. A matrix of 30 mg/ml 2′,4′,6′-Trihydroxyacetophenone monohydrate (THAP) in acetone was applied using a TPP Mosquito 1.2 μL tip by dispensing 50 nL on each of the 384 spots on the array. SAMDI-MS was run using acquisition method ReflectorPositiveUTX. The % conversion of substrate to product was calculated using the AUC of the substrate and product peptide peaks.
An IC50 value was determined by contacting various concentrations of a test compound with one of the KDM4A, KDM4C or KDMSC enzyme constructs and plotting a dose-response curve which associates the amount of inhibition of the enzyme relative to the concentration of the test compound. From the curve, the IC50 value (which represents the concentration of the test compound necessary to inhibit maximal enzymatic activity by 50%) was determined. Additionally, the slope of the linear range of the plotted curve, which indicates the speed with which the curve rises between the minimum and maximum, was calculated.

Compound | IC50 [nM]
Cc1c(-c2ccccc2)nn(CCN2CCC(F)(F)CC2)c1Nc1cnccc1C(=O)O [Compound 66, 3-((1-(2-(4,4-difluoropiperidin-1-yl)ethyl)-4-methyl-3-phenyl-1H-pyrazol-5-yl)amino)isonicotinic acid] | 10000 to 100000
Cn1cc(Nc2cnccc2C(=O)O)c(-c2ccccc2)n1 [Compound 13, 3-((1-methyl-3-phenyl-1H-pyrazol-4-yl)amino) isonicotinic acid] | 1000 to 10000
Cc1c(Nc2cnccc2C(=O)O)cnn1C1CCN(CC(F)(F)F)CC1 [Compound 100, 3-(5-methyl-1-(1-(2,2,2-tri-fluoro-ethyl)piperidin-4-yl)-1H-pyrazol-4-ylamino)isonicotinic acid] | 1000 to 10000
Cc1nn(-c2ccccc2C#N)cc1Nc1cnccc1C(=O)O [Compound 70, 3-((1-(2-cyanophenyl)-3-methyl-1H-pyrazol-4-yl)amino) isonicotinic acid] | 1000 to 10000
O=C(O)c1ccncc1Nc1c(-c2ccccc2)cnn1CCN1CCC(F)(F)CC1 [Compound 15, 3-((1-(2-(4,4-difluoropiperidin-1-yl)ethyl)-4-phenyl-1H-pyrazol-5-yl)amino)isonicotinic acid] | 1000 to 10000
Cn1ncc(-c2ccccc2)c1Nc1cnccc1C(=O)O [Compound 1] | 1000 to 10000
O=C(O)c1ccncc1Nc1cc(-c2ccccc2)nn1C1CCOCC1 [Compound 23, 3-((3-Phenyl-1-(tetrahydro-2H-pyran-4-yl)-1H-pyrazol-5-yl)amino)isonicotinic acid] | 1000 to 10000
Cn1cc(-c2ccccc2)c(Nc2cnccc2C(=O)O)n1 [Compound 3] | 1000 to 10000
Cc1cn(-c2ccccc2)c(Nc2cnccc2C(=O)O)n1 [Compound 2] | 1000 to 10000
Cc1c(Nc2cnccc2C(=O)O)cnn1[C@H]1CC[C@@H](N)CC1 [Compound 79, 3-((1-((cis)-4-aminocyclohexyl)-5-methyl-1H-pyrazol-4-yl)amino)isonicotinic acid] | 1000 to 10000
CN(C)CCCn1ncc(-c2ccccc2)c1Nc1cnccc1C(=O)O [Compound 52, 3-((1-(3-(dimethylamino)propyl)-4-phenyl-1H-pyrazol-5-yl)amino) isonicotinic acid] | 1000 to 10000
NCCn1nc(-c2ccccc2)cc1Nc1cnccc1C(=O)O [Compound 26] | 1000 to 10000
O=C(O)c1ccncc1Nc1cc(-c2ccccc2)nn1[C@H]1CC[C@H](O)CC1 [Compound 39, 3-((1-((trans)-4-hydroxycyclohexyl)-3-phenyl-1H-pyrazol-5-yl)amino)isonicotinic acid] | 10000 to 100000
Cc1cc(Nc2cnccc2C(=O)O)nn1-c1ccccc1 [Compound 60, 3-((5-methyl-1-phenyl-1H-pyrazol-3-yl)amino)isonicotinic acid] | 1000 to 10000
Cc1c(Nc2cnccc2C(=O)O)cnn1C1CCN(C2CCC2)CC1 [Compound 96] | 1000 to 10000
Cc1nn(C2CCNCC2)cc1Nc1cnccc1C(=O)O [Compound 69, 3-((3-methyl-1-(piperidin-4-yl)-1H-pyrazol-4-yl)amino) isonicotinic acid] | 100 to 1000
Cc1cc(Nc2cnccc2C(=O)O)n(C2CCOCC2)n1 [Compound 78, 3-((3-methyl-1-(tetrahydro-2H-pyran-4-yl)-1H-pyrazol-5-yl)amino) isonicotinic acid] | 1000 to 10000

The remaining lines, values ahead:

IC50 [nM] | Compound
100 to 1000 | Cc1nn(C2CCN(CC(F)(F)F)CC2)cc1Nc1cnccc1C(=O)O [Compound 99, 3-(3-methyl-1-(1-(2,2,2-trifluoroethyl)piperidin-4-yl)-1H-pyrazol-4-ylamino)isonicotinic acid]
1 to 100 | COc1ccccc1-n1cc(C)c(Nc2cnccc2C(=O)O)n1 [Compound 63, 3-((1-(2-methoxyphenyl)-4-methyl-1H-pyrazol-3-yl)amino) isonicotinic acid]
1 to 100 | Cn1nc(-c2ccc(Cl)cc2)cc1Nc1cnccc1C(=O)O [Compound 24, 3-((3-(4-Chlorophenyl)-1-methyl-1H-pyrazol-5-yl)amino) isonicotinic acid]
100 to 1000 | O=C(O)c1ccncc1Nc1cn(CCN2CCC(F)(F)CC2)nc1-c1ccccc1 [Compound 17, 3-((1-(2-(4,4-Difluoropiperidin-1-yl)ethyl)-3-phenyl-1H-pyrazol-4-yl)amino)isonicotinic acid]
1 to 100 | O=C(O)c1ccncc1Nc1nn(CCN2CCC(F)(F)CC2)cc1-c1ccccc1 [Compound 14, 3-((1-(2-(4,4-Difluoropiperidin-1-yl)ethyl)-4-phenyl-1H-pyrazol-3-yl)amino)isonicotinic acid]
100 to 1000 | CC(C)n1nc(-c2ccccc2)cc1Nc1cnccc1C(=O)O [Compound 22, 3-((1-Isopropyl-3-phenyl-1H-pyrazol-5-yl)amino)isonicotinic acid]
100 to 1000 | Cn1ncc(-c2ccccc2F)c1Nc1cnccc1C(=O)O [Compound 12, 3-((4-(2-fluorophenyl)-1-methyl-1H-pyrazol-5-yl)amino) isonicotinic acid]
1 to 100 | CN1CCN(CCn2ncc(-c3ccccc3)c2Nc2cnccc2C(=O)O)CC1 [Compound 35, 3-((1-(2-(4-methylpiperazin-1-yl)ethyl)-4-phenyl-1H-pyrazol-5-yl)amino)isonicotinic acid]
100 to 1000 | O=C(O)c1ccncc1Nc1nn(-c2ccccc2)cc1-c1ccccc1 [Compound 42, 3-((1,4-diphenyl-1H-pyrazol-3-yl)amino)isonicotinic acid]
1 to 100 | Cc1c(Nc2cnccc2C(=O)O)nn(CCN2CCC(F)(F)CC2)c1-c1ccccc1 [Compound 67, 3-((1-(2-(4,4-difluoropiperidin-1-yl)ethyl)-4-methyl-5-phenyl-1H-pyrazol-3-yl)amino)isonicotinic acid]
100 to 1000 | Cn1cc(-c2ccc(F)cc2)c(Nc2cnccc2C(=O)O)n1 [Compound 7, 3-((4-(4-Fluorophenyl)-1-methyl-1H-pyrazol-3-yl)amino) isonicotinic acid]
1 to 100 | Cc1nn(-c2ccccc2)cc1Nc1cnccc1C(=O)O [Compound 19, 3-((3-Methyl-1-phenyl-1H-pyrazol-4-yl)amino)isonicotinic acid]
1 to 100 | Cn1nc(-c2ccccc2)cc1Nc1cnccc1C(=O)O [Compound 6]
100 to 1000 | Cc1nn(C2CCN(C(=O)c3ccccc3)CC2)cc1Nc1cnccc1C(=O)O [Compound 97, 3-(1-(1-benzoylpiperidin-4-yl)-3-methyl-1H-pyrazol-4-ylamino) isonicotinic acid]
100 to 1000 | O=C(O)c1ccncc1Nc1nn(CCC(F)(F)F)cc1-c1ccncc1 [Compound 74, 3-((4-(pyridin-4-yl)-1-(3,3,3-trifluoropropyl)-1H-pyrazol-3-yl)amino)isonicotinic acid]
